From patent US8664214B2, “Small molecule potentiators of metabotropic glutamate receptors I” (AbbVie Deutschland GmbH & Co. KG, priority 2010, dated 2014) come the findings set out here.

The target in this experiment is T1, human mGlu2 receptor (Homo sapiens, UniProt Q14416).
T1 construct: V5/His (named only as part of the vector); expressed in transfected cells; host or cells: HEK293
Description: FLIPR intracellular Ca2+ assay, potentiation of 1 μM glutamate in HEK293 cells expressing hmGlu2, rGLAST and Galpha16. In kind it is cell-based. As to conditions: HEK293 hmGlu2 clone. From the text: The compounds of the present invention can be tested e.g. by evaluating intracellular Ca^2+ concentrations in cells permanently expressing human mGlu receptor, the rat glutamate transporter rGLAST and the Galpha16 subunit of the G-protein complex under standard conditions in a fluorometric imaging plate reader (FLIPR, Molecular Devices, Union City, Calif. 94587, USA) by measuring the response of the cells to a test compound in the absence of presence of glutamate. The FLIPR assay is a common functional assay to monitor native or recombinant Galphaq-coupled receptors, and native or recombinant receptors normally linked to other G-protein signalling cascades, which are coupled to calcium through co-expression of an alpha subunit of a promiscuous or chimeric G-protein. In the assay the increase of intracellular calcium is measured through a calcium-dependent fluorescent dye (e.g. Fluo-4 AM) in the FLIPR instrument.
For the purpose of the present study, a cell line permanently expressing a human mGlu receptor, such as the mGlu2 receptor, the rat glutamate transporter rGLAST and the GalphaG16 may be generated by transfection as described in the examples. For selection of a suitable cell clone and also the subsequent measurements, the selected clone the cells will be plated on suitable multiwell plates in a suitable medium (e.g. DMEM Glutamax (GIBCO # 21885-025)/10% dialyzed FCS). Cells may be selected by gentamycin treatment as described in the examples. Cells will then be loaded with a suitable Ca^2+ sensitive fluorescence dye, e.g. with 2 μM Fluo-4 AM (Molecular Probes, F14201). Cells will then be washed with a suitable buffer (e.g. HEPES) and the thus treated plates will be measured in a fluorometric imaging plate reader (e.g. FLIPR, Molecular Devices, Union City, Calif. 94587, USA).
The compounds of the present invention were tested in the above-described FLIPR assay using the selected cell clone. Increased intracellular calcium levels were quantified following addition of test compound (agonism), as well as following addition of a submaximal concentration of glutamate (potentiation).
For the determination of the effect of the test compound by itself (agonism) or by increasing the response to a submaximal concentration (e.g. 1 μM) of glutamate (potentiation), the resulting signal is determined by subtraction of the background fluorescence from the maximal fluorescent peak height of the respective response. In the FLIPR instrument the compound is given to the cell and its fluorescence response quantified by the FLIPR instrument (agonism). The concentration at which the compound exerts half its maximal effect is named the ‘effective concentration 50’ or ‘EC50’. The maximal effect induced by the test substance is normalized to the maximal effect exerted by 100 μM glutamate (set at 100%).
After addition of the test compound to the plate, a submaximal concentration of glutamate (e.g. 1 μM glutamate) will be added. A potentiator enhances the response of the receptor to glutamate. The response to glutamate in the presence of test compound is quantified. The concentration at which the test compound is able to exert half its maximal potentiation effect to glutamate is named the ‘EC50’. The maximal response to the submaximal concentration of glutamate (e.g. 1 micromolar glutamate) in the presence of test compound is normalized to the maximal effect exerted by 100 micromolar glutamate (set at 100%). Least squares curve fitting with a four-parameter equation is then applied to the resulting dose-response curve to determine the resulting EC50 values (Graph Pad Prism).
For the purpose of the present study, a cell line permanently expressing the human mGlu2 receptor, the rat glutamate transporter rGLAST and the alpha subunit of G16 was generated by transfection. […]

What is called EC50 is the concentration at which the effect is half-maximal.

T1 sequence (Q14416 19-872): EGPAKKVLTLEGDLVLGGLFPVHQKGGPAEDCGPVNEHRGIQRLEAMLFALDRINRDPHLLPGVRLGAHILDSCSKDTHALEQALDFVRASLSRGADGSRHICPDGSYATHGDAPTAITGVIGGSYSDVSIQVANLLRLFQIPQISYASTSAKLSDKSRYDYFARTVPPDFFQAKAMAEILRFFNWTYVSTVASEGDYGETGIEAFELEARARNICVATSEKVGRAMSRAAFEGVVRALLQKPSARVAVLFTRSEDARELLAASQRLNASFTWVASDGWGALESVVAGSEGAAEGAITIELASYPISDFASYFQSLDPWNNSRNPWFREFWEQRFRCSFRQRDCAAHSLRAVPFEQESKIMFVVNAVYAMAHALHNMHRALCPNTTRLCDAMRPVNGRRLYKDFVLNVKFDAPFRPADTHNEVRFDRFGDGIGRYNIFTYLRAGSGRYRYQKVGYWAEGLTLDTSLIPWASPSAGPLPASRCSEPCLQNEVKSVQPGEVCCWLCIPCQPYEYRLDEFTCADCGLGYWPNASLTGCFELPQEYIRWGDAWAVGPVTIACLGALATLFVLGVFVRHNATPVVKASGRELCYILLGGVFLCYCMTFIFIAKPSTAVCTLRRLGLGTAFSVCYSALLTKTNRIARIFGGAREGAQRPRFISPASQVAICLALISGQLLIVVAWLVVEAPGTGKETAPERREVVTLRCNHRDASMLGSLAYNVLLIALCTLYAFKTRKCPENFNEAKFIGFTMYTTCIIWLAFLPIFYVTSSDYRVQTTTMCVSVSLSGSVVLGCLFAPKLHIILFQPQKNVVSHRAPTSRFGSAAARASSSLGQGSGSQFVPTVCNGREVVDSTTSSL

With `CCCCN1Cc2cc(OCc3c(-c4ccccc4)cc(C)nc3C)ccc2C1=O` [Example 1, 2-butyl-5-((2,6-dimethyl-4-phenylpyridin-3-yl)methoxy)isoindolin-1-one], the EC50 was under 500 nM.
The result for `Cc1cc(-c2ccccc2)c(COc2ccc3c(c2)CN(CCOC(F)(F)F)C3=O)c(C)n1` [Example 2, 5-((2,6-dimethyl-4-phenylpyridin-3-yl)methoxy)-2-(2-(trifluoromethoxy)ethyl)isoindolin-1-one] reads under 500 nM.
The result for `CCCN1Cc2cc(OCc3cnccc3Oc3ccccc3)ccc2C1=O` [Example 3, 5-((4-phenoxypyridin-3-yl)methoxy)-2-propylisoindolin-1-one] reads 500 to 2000 nM; that for `CCCCN1Cc2cc(OCc3c(-c4ccccc4)ccnc3Cl)ccc2C1=O` [Example 4, 2-butyl-5-((2-chloro-4-phenylpyridin-3-yl)methoxy)isoindolin-1-one], under 500 nM.
Turning to `CCCCN1Cc2cc(OCc3c(I)ccnc3Cl)ccc2C1=O` [Example 5, 2-butyl-5-((2-chloro-4-iodopyridin-3-yl)methoxy)isoindolin-1-one], the concentration for a half-maximal effect (EC50) was under 500 nM.
The result for `CCCN1Cc2cc(OCc3cnccc3-c3ccccc3)ccc2C1=O` [Example 6, 5-(4-Phenyl-pyridin-3-ylmethoxy)-2-propyl-2,3-dihydro-isoindol-1-one] reads under 500 nM; that for `O=C1c2ccc(OCc3cnccc3-c3ccccc3)cc2CN1CCOC(F)(F)F` [Example 7, 5-(4-Phenyl-pyridin-3-ylmethoxy)-2-(2-trifluoromethoxy-ethyl)-2,3-dihydro-isoindol-1-one], under 500 nM; that for `CCCN1Cc2cc(OCc3cnccc3NC(=O)OC(C)(C)C)ccc2C1=O` [Example 8, [3-(1-oxo-2-propyl-2,3-dihydro-1H-isoindol-5-yloxymethyl)-pyridin-4-yl]-carbamic acid tert-butyl ester], 2000 to 10000 nM.
The result for `CCN1Cc2cc(OCc3c(-c4ccccc4)cc(C)nc3C)ccc2C1=O` [Example 11, 5-(2,6-Dimethyl-4-phenyl-pyridin-3-ylmethoxy)-2-ethyl-2,3-dihydroisoindol-1-one] reads under 500 nM; that for `CCCCN1Cc2cc(NCc3c(-c4ccccc4)cc(C)nc3C)ccc2C1=O` [Example 13, 2-butyl-5-((2,6-dimethyl-4-phenylpyridin-3-yl)methylamino)isoindolin-1-one], under 500 nM.
The result for `CCCCN1Cc2cc(NCc3cnccc3C(F)(F)F)ccc2C1=O` [Example 14, 2-butyl-5-((4-(trifluoromethyl)pyridin-3-yl)methylamino)isoindolin-1-one] reads under 500 nM; that for `CCCCN1Cc2cc(NCc3cnccc3-c3ccccc3)ccc2C1=O` [Example 15, 2-butyl-5-((4-phenylpyridin-3-yl)methylamino)isoindolin-1-one], under 500 nM.
Consider `CCCCN1Cc2cc(NCc3cnccc3Oc3ccccc3)ccc2C1=O` [Example 16, 2-butyl-5-((4-phenoxypyridin-3-yl)methylamino)isoindolin-1-one], for which the EC50 is under 500 nM.
Regarding `CCCCN1Cc2cc(NCc3c(C(F)(F)F)ccnc3Cl)ccc2C1=O` [Example 17, 2-butyl-5-((2-chloro-4-(trifluoromethyl)pyridin-3-yl)methylamino)-isoindolin-1-one], the EC50 was under 500 nM.
For the compound `CCCCN1Cc2cc(NCc3cnccc3Nc3ccccc3)ccc2C1=O` [Example 19, 2-butyl-5-((4-(phenylamino)pyridin-3-yl)methylamino)isoindolin-1-one], the EC50 is 500 to 2000 nM.
The result for `CCCCN1Cc2cc(NCc3cnccc3-c3ccc(C#N)cc3)ccc2C1=O` [Example 20, 4-(3-((2-butyl-1-oxoisoindolin-5-ylamino)methyl)pyridin-4-yl)benzonitrile] reads under 500 nM; that for `CCCCN1Cc2cc(NCc3cnccc3-c3ccc(C(F)(F)F)cc3)ccc2C1=O` [Example 21, 2-butyl-5-((4-(4-(trifluoromethyl)phenyl)pyridin-3-yl)methylamino)-isoindolin-1-one], under 500 nM.
As to `CCCCN1Cc2cc(NCc3cccnc3)ccc2C1=O` [Example 22, 2-butyl-5-[(pyridin-3-ylmethyl)amino]-2,3-dihydro-1H-isoindol-1-one], the EC50 lay within 2000 to 10000 nM.
With `Cc1cc(-c2ccccc2)c(CNc2cc(Cl)c3c(c2)CN(C2CC2)C3=O)c(C)n1` [Example 23, 7-chloro-2-cyclopropyl-5-{[(2,6-dimethyl-4-phenylpyridin-3-yl)methyl]amino}-2,3-dihydro-1H-isoindol-1-one], the EC50 is under 500 nM.
Take `O=C1c2c(Cl)cc(NCc3c(C(F)(F)F)ccnc3Cl)cc2CN1C1CC1` [Example 24, 7-chloro-5-({[2-chloro-4-(trifluoromethyl)pyridin-3-yl]methyl}amino)-2-cyclopropyl-2,3-dihydro-1H-isoindol-1-one]: the EC50 was under 500 nM.
The result for `CCCCN1Cc2cc(NCc3cnccc3N3CCOCC3)ccc2C1=O` [Example 25, 2-butyl-5-({[4-(morpholin-4-yl)pyridin-3-yl]methyl}amino)-2,3-dihydro-1H-isoindol-1-one] reads 500 to 2000 nM.
Take `CCCCN1Cc2cc(NCc3cnccc3N3CCN(C)CC3)ccc2C1=O` [Example 26, 2-butyl-5-({[4-(4-methylpiperazin-1-yl)pyridin-3-yl]methyl}amino)-2,3-dihydro-1H-isoindol-1-one]: the EC50 was 2000 to 10000 nM.
The result for `CCCCN1Cc2cc(NCc3c(C)ccnc3Cl)ccc2C1=O` [Example 33, 2-butyl-5-{[(2-chloro-4-methylpyridin-3-yl)methyl]amino}-2,3-dihydro-1H-isoindol-1-one] reads 500 to 2000 nM.
As to `CCCCN1Cc2cc(NCc3ccc(Br)nc3Cl)ccc2C1=O` [Example 34, 5-{[(6-bromo-2-chloropyridin-3-yl)methyl]amino}-2-butyl-2,3-dihydro-1H-isoindol-1-one], the EC50 is 500 to 2000 nM.
The result for `CCCCN1Cc2cc(NCc3c(Cl)ccnc3Cl)ccc2C1=O` [Example 35, 2-butyl-5-{[(2,4-dichloropyridin-3-yl)methyl]amino}-2,3-dihydro-1H-isoindol-1-one] reads under 500 nM; that for `CCCCN1Cc2cc(NCc3ccc(Cl)nc3OC)ccc2C1=O` [Example 36, 2-butyl-5-{[(6-chloro-2-methoxypyridin-3-yl)methyl]amino}-2,3-dihydro-1H-isoindol-1-one], 500 to 2000 nM.
The result for `CCCCN1Cc2cc(NCc3ccc(OC)nc3Cl)ccc2C1=O` [Example 37, 2-butyl-5-{[(2-chloro-6-methoxypyridin-3-yl)methyl]amino}-2,3-dihydro-1H-isoindol-1-one] reads 500 to 2000 nM; that for `CCCCN1Cc2cc(NCc3cccnc3Cl)ccc2C1=O` [Example 38, 2-butyl-5-{[(2-chloropyridin-3-yl)methyl]amino}-2,3-dihydro-1H-isoindol-1-one], 2000 to 10000 nM; that for `COCCN1Cc2cc(NCc3c(C(F)(F)F)ccnc3Cl)cc(C)c2C1=O` [Example 39], 500 to 2000 nM.
The result for `CCCCN1Cc2cc(NCc3cnccc3NCc3ccccc3)ccc2C1=O` [Example 42, 5-((4-(benzylamino)pyridin-3-yl)methylamino)-2-butylisoindolin-1-one] reads 2000 to 10000 nM.
`CCCCN1Cc2cc(NCc3cnccc3NC(=O)C(C)(C)C)ccc2C1=O` [Example 43, N-(3-((2-butyl-1-oxoisoindolin-5-ylamino)methyl)pyridin-4-yl)pivalamide]: the EC50 lay in the range of 500 to 2000 nM.
The result for `Cc1cc(-c2ccccc2)c(COc2ccc3c(c2)CN(CCOC(F)(F)F)C3=O)c(C)[n+]1[O-]` [Example 44, 2,6-dimethyl-3-((1-oxo-2-(2-(trifluoromethoxy)ethyl)-isoindolin-5-yloxy)-methyl)-4-phenylpyridine 1-oxide] reads under 500 nM.
